Substitutions are numbered along the chain they refer to. Structures can show the parent of a compound that is named as a salt.
Columns and labels:
[1] = biological target: T1, FLT3-ITD-F691L Ba/F3 cells (Homo sapiens, UniProt P36888, F691L, cells depend on it, form not given); experiment: Growth inhibitory activity against Ba/F3 cell line; assay type: cell-based; conditions: Ba/F3 expressing FLT3-ITD-F691L; 72 hours; cell titer glo; read-out: IC50 (uM) FLT3-ITD-F691L
T1 sequence (P36888 1-993 F691L): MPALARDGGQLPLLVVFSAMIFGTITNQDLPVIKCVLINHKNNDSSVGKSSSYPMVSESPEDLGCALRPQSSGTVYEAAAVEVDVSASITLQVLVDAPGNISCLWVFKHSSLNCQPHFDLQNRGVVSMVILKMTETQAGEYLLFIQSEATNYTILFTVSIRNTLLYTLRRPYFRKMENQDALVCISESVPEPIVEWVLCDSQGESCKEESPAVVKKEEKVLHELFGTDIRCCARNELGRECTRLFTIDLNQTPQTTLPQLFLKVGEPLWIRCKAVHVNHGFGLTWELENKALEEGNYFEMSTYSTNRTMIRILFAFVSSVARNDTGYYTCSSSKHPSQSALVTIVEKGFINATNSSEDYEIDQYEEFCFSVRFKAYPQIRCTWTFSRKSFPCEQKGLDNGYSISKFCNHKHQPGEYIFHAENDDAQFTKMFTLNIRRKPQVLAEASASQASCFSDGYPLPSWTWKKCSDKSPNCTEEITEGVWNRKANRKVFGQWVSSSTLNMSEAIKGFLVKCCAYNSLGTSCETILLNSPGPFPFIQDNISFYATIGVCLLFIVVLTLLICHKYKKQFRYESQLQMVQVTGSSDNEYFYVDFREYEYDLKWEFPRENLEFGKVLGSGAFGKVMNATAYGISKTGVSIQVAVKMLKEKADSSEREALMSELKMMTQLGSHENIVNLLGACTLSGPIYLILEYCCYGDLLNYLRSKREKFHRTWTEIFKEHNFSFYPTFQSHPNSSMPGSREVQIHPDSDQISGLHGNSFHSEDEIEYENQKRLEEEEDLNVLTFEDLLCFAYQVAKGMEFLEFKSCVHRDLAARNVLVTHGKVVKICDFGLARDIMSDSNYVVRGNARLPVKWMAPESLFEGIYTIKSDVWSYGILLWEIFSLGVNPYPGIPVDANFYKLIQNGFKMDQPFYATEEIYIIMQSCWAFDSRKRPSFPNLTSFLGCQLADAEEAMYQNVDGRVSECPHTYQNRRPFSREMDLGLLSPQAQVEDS
Description: (§1) A Ba/F3 cell line expressing an FLT3 mutation gene was cultured in a culture solution including 90% RPMI, 10% FBS, and an antibiotic (Welgene). 100 uL of the Ba/F3 cell line was put into each of 5,000 wells of a TC-treated 96 well plate (SPL), and then 1 uL of a test compound diluted in dimethylsulfoxide (diluted for each 3 paint from a concentration of 1 mM, total 10 concentrations) was each injected thereinto. Thereafter, the resulting cell lines were incubated in a cell culture incubator for 72 hours. 50 uL of a cell titer glo (Promega) solution was added thereto, the resulting mixture was stored at room temperature for 10 minutes, and then the light emission intensity was measured by using a reader (Envision, PerkinElmer). The light emission intensity was shown as a graph for each final concentration of the test compound, and the GI50 value was obtained by using a Prism 5.0 (GraphPad) software.

[2] = biological target: T2, FLT3-ITD-F691L-D835Y Ba/F3 cells (Homo sapiens, UniProt P36888, F691L/D835Y, cells depend on it, form not given); experiment: Growth inhibitory activity against Ba/F3 cell line; assay type: cell-based; conditions: Ba/F3 expressing FLT3-ITD-F691L-D835Y; 72 hours; cell titer glo; read-out: IC50 (uM) FLT3-ITD-F691L-D835Y
T2 sequence (P36888 1-993 F691L/D835Y): T1 sequence (P36888 1-993 F691L) with D835Y
Description: as §1

| SMILES | GI50 [1] [µM] | GI50 [2] [µM] |
| --- | --- | --- |
| NC(=O)Nc1cc(C#Cc2ccccc2)sc1C(=O)N[C@H]1CCCNC1 [Example 2, (S)-5-(phenylethynyl)-N-(piperidin-3-yl)-3-ureidothiophene-2-carboxamide] | 0.004 | < 0.001 |
| NC(=O)Nc1cc(C#Cc2cccnc2)sc1C(=O)N[C@H]1CCCNC1 [Example 3, (S)—N-(piperidin-3-yl)-5-(pyridin-3-ylethynyl)-3-ureidothiophene-2-carboxamide] | 0.099 | < 0.004 |
| NC(=O)Nc1cc(C#Cc2ccncc2)sc1C(=O)N[C@H]1CCCNC1 [Example 4, (S)—N-(piperidin-3-yl)-5-(pyridin-4-ylethynyl)-3-ureidothiophene-2-carboxamide] | 1.1 | 0.01 |
| NC(=O)Nc1cc(C#Cc2cccc([N+](=O)[O-])c2)sc1C(=O)N[C@H]1CCCNC1 [Example 5, (S)-5-((3-nitrophenyl)ethynyl)-N-(piperidin-3-yl)-3-ureidothiophene-2-carboxamide] | 0.062 | < 0.004 |
| N#Cc1cccc(C#Cc2cc(NC(N)=O)c(C(=O)N[C@H]3CCCNC3)s2)c1 [Example 6, (S)-5-((3-cyanophenyl)ethynyl)-N-(piperidin-3-yl)-3-ureidothiophene-2-carboxamide] | 0.055 | < 0.004 |
| NC(=O)Nc1cc(C#Cc2ccc([N+](=O)[O-])cc2)sc1C(=O)N[C@H]1CCCNC1 [Example 7, (S)-5-((4-nitrophenyl)ethynyl)-N-(piperidin-3-yl)-3-ureidothiophene-2-carboxamide] | 0.089 | < 0.004 |
| NC(=O)Nc1cc(C#Cc2ccc(Cl)cc2)sc1C(=O)N[C@H]1CCCNC1 [Example 8, (S)-5-((4-chlorophenyl)ethynyl)-N-(piperidin-3-yl)-3-ureidothiophene-2-carboxamide] | 0.013 | < 0.001 |
| NC(=O)Nc1cc(C#Cc2ccc(F)cc2)sc1C(=O)N[C@H]1CCCNC1 [Example 9, (S)-5-((4-fluorophenyl)ethynyl)-N-(piperidin-3-yl)-3-ureidothiophene-2-carboxamide] | 0.005 | < 0.001 |
| NC(=O)Nc1cc(C#Cc2ccccn2)sc1C(=O)N[C@H]1CCCNC1 [Example 10, (S)—N-(piperidin-3-yl)-5-(pyridin-2-ylethynyl)-3-ureidothiophene-2-carboxamide] | 0.066 | 0.004 |
| N#Cc1ccc(C#Cc2cc(NC(N)=O)c(C(=O)N[C@H]3CCCNC3)s2)cc1 [Example 11, (S)-5-((4-cyanophenyl)ethynyl)-N-(piperidin-3-yl)-3-ureidothiophene-2-carboxamide] | 0.004 | < 0.001 |
| NC(=O)Nc1cc(C#Cc2n[nH]c3ccccc23)sc1C(=O)N[C@H]1CCCNC1 [Example 12, (S)-5-((1H-indazol-3-yl)ethynyl)-N-(piperidin-3-yl)-3-ureidothiophene-2-carboxamide] | 0.487 | 0.027 |
| NC(=O)Nc1cc(C#Cc2ccc(F)nc2)sc1C(=O)N[C@H]1CCCNC1 [Example 13, (S)-5-((6-fluoropyridin-3-yl)ethynyl)-N-(piperidin-3-yl)-3-ureidothiophene-2-carboxamide] | 0.022 | 0.004 |
| NC(=O)Nc1cc(C#Cc2ccc(F)c(F)c2)sc1C(=O)N[C@H]1CCCNC1 [Example 14, (S)-5-((3,4-difluorophenyl)ethynyl)-N-(piperidin-3-yl)-3-ureidothiophene-2-carboxamide] | 0.009 | < 0.001 |
| Cn1cc(C#Cc2cc(NC(N)=O)c(C(=O)N[C@H]3CCCNC3)s2)cn1 [Example 15, (S)-5-((l-methyl-1H-pyrazol-4-yl)ethynyl)-N-(piperidin-3-yl)-3-ureidothiophene-2-carboxamide trifluoroacetate] | 0.216 | 0.009 |
| NC(=O)Nc1cc(C#Cc2ccc(C(F)(F)F)cc2)sc1C(=O)N[C@H]1CCCNC1 [Example 16, ((S)—N-(piperidin-3-yl)-5-((4-(trifluoromethyl)phenyl)ethynyl)-3-ureidothiophene-2-carboxamide trifluoroacetate] | 0.335 | 0.004 |
| NC(=O)Nc1cc(C#Cc2ccc(C(F)(F)F)nc2)sc1C(=O)N[C@H]1CCCNC1 [Example 17, (S)—N-(piperidin-3-yl)-5-((6-(trifluoromethyl)pyridin-3-yl)ethynyl)-3-ureidothiophene-2-carboxamide] | 0.069 | < 0.004 |
| COC(=O)c1ccc(C#Cc2cc(NC(N)=O)c(C(=O)N[C@H]3CCCNC3)s2)cc1 [Example 18, methyl (S)-4-((5-(piperidin-3-ylcarbamoyl)-4-ureidothiophen-2-yl)ethynyl)benzoate trifluoroacetate] | 0.023 | < 0.001 |
| NC(=O)Nc1cc(C#Cc2ccnc(F)c2)sc1C(=O)N[C@H]1CCCNC1 [Example 21, (S)-5-((2-fluoropyridin-4-yl)ethynyl)-N-(piperidin-3-yl)-3-ureidothiophene-2-carboxamide] | 0.087 | < 0.004 |
| NC(=O)Nc1cc(C#Cc2cccc(F)c2)sc1C(=O)N[C@H]1CCCNC1 [Example 22, (S)-5-((3-fluorophenyl)ethynyl)-N-(piperidin-3-yl)-3-ureidothiophene-2-carboxamide] | 0.032 | < 0.001 |
| CS(=O)(=O)N1CCC(n2cc(C#Cc3cc(NC(N)=O)c(C(=O)N[C@H]4CCCNC4)s3)cn2)CC1 [Example 23, (S)-5-((1-(1-(methylsulfonyl)piperidin-4-yl)-1H-pyrazol-4-yl)ethynyl)-N-(piperidin-3-yl)-3-ureidothiophene-2-carboxamide] | 0.267 | 0.02 |
| Cc1ccc(C#Cc2cc(NC(N)=O)c(C(=O)N[C@H]3CCCNC3)s2)cc1 [Example 24, (S)—N-(piperidin-3-yl)-5-(p-tolylethynyl)-3-ureidothiophene-2-carboxamide] | 0.058 | 0.002 |
| Cn1cc(C#Cc2cc(NC(N)=O)c(C(=O)NC3CCNC3)s2)cn1 (centres unmarked) [Example 39, 5-((1-methyl-1H-pyrazol-4-yl)ethynyl)-N-(pyrrolidin-3-yl)-3-ureidothiophene-2-carboxamide trifluoroacetate] | 19.1 | 1.24 |

From US10442796B2, “2,3,5-substituted thiophene compound as protein kinase inhibitor” (KOREA INSTITUTE OF SCIENCE AND TECHNOLOGY, priority 2016, dated 2019)
